Results taken from US20230389545A1, “ANTIMICROBIAL COMPOSITION” (The Procter & Gamble Company, priority 2022, published 2023).

Assays:
[1] = Stability of the isolated solid followed by 1H NMR; format: physicochemical; settings: storage
Gram Negative = experiment: Surface Antimicrobial Kill Testing Method, activity normalized to triclosan internal standard; format: cell-based; settings: for antimicrobial activity (in words, comment on Table 1B): composition with nonionic surfactant and non-aqueous solvent; for antimicrobial benefit (in words, comment on Table 2B): DPGME / Surfonic L24-9 composition
Procedure: Inoculum is prepared by streaking microorganism onto a Tryptic Soy Agar (TSA) plate and incubating for 24 h at 33° C. Plated bacteria is resuspended in saline until the transmittance percentage falls within the accepted range for ˜10^8 cfu/mL. For K. pneumonia (Kp) and P. aeruginosa (Pa), this is 31.00-33.00% T. For S. aureus (Sa) this is 23.00-25.00% T. A 10× concentration is made by spinning down the prepared inoculum, removing the supernatant saline from the bacterial pellet, then resuspending the pellet in 1/10th of the original volume of saline. The final inoculum is prepared with 5% of “soil” in the form of Fetal Bovine Serum (FBS).
A 18×18 mm sterile glass coverslip is placed into an appropriate container (e.g. petri dish). 20 μL of prepared inoculum is added to the glass coverslip. Inoculum is then air-dried for 30 minutes in a 36° C. incubator. After drying, 40 μL of test sample is added on top of the dried inoculum. This is incubated at room temperature for the desired contact time. 5 mL of neutralizing media (Modified Letheen Broth+Tween+Lecithin (MLBTL)) is added to the coverslip and shaken on an orbital shaker for 5 minutes to ensure proper neutralization and extraction. Viability is then assessed of the neutralized and extracted sample by traditional/alternative microbiological techniques.
The normalized antimicrobial activity reported in the performance examples below was generated from detection time data obtained as described in the Surface Antimicrobial Kill Test Method. To account for day-to-day variability an internal standard was tested with each series. […] Normalized activity is reported following the equation 1 below.
Normalized Activity=(αΔDT−βΔDT)/(γΔDT−βΔDT) equation 1.
where, αΔDT is the average detection time of the antimicrobial compound, and γΔDT is the average detection time of the reference triclosan internal standard, and βΔDT is the average detection time of the background unperturbed bacteria.
Modified amino acids of the present disclosure were tested as aqueous solutions in the Surface Antimicrobial Kill Testing Method above. To prepare test solutions modified amino acids were first dissolved in the appropriate solvent. Second the selected surfactant is added to the mixture. After vortex (1 min, Vortex-2 Genie, vortex speed 8) mixing, the samples were then diluted with […] of reverse osmosis water (RO water, Millipore Direct-Q™, pH 6). The aqueous solution was then vortexed (1 min, Vortex-2 Genie, vortex speed 8), to which the second ½ portion of water is added. The pH of the solution was then adjusted to the target pH using either 1N HCl, Glacial Acetic Acid, or 1N NaOH. The final solution was then vortexed (1 min, Vortex-2 Genie, vortex speed 8). An example batch sheet is provided below in Table 1.
After treatment, microbial growth is referenced and reported to a triclosan sample and unaltered microbes according to the Normalization of Antimicrobial Activity provided above.

| SMILES | stability of the independent solid by 1H NMR [1] | antimicrobial activity (in words, comment on Table 1B) (Gram Negative) | antimicrobial benefit (in words, comment on Table 2B) (Gram Negative) | antimicrobial efficacy versus pH (in words, comment on Table 3) (Gram Negative; composition pH of about 2 to less than about pH 9) | microbial activity with surfactants (in words, comment on Table 4) (Gram Negative; with non-ionic and amphoteric surfactants, isotropic solutions) |
| --- | --- | --- | --- | --- | --- |
| CC(C)(C)OC(=O)[C@@H](N)Cc1c[nH]c2ccccc12 [Synthetic Example 1, L-tryptophan tert-butyl ester] | stable for several months | proved to be antimicrobial | – | – | – |
| CCCCCCCCOC(=O)[C@@H](N)Cc1c[nH]c2ccccc12 [Synthetic Example 3] | stable for several months | highest antimicrobial activity | – | – | – |
| CCCCCCCCCCCCOC(=O)[C@@H](N)Cc1c[nH]c2ccccc12 [Synthetic Example 4] | stable for several months | – | – | – | – |
| CCCCCCCCOC(=O)[C@@H](N)Cc1ccc(O)cc1 [Synthetic Example 5] | stable for several months | – | antimicrobial benefit over the solvent/surfactant alone and over Comparative Example C2 | improved antimicrobial efficacy | improved microbial activity over the aqueous solution of the modified amino acid alone |
| CC/C=C\CCCCCOC(=O)[C@@H](N)Cc1ccc(O)cc1 [Synthetic Example 6] | stable for several months | – | antimicrobial benefit over the solvent/surfactant alone and over Comparative Example C2 | – | – |
| CCCCCC(CCC)COC(=O)[C@@H](N)Cc1ccc(O)cc1 (stereo partly shown) [Synthetic Example 7] | stable for several months | – | antimicrobial benefit over the solvent/surfactant alone and over Comparative Example C2 | – | – |
